The structures appear in SMILES notation.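 Compound exposure: 48 hours, 5 concentrations, 96-well plates. At the GI50, growth is halved.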 Calls of active or inactive are those of the source. Rule as the data show it: active = GI50 up to about 1.1 µM and inactive = higher.

Here are results for seven compounds from ChEMBL document CHEMBL1201862, “PubChem BioAssay data set” (2004).

Some test systems named below: M14; SF-539; RXF 393; NCI-H23; NCI-H460; Malme-3M; SK-OV-3; SW-620; HCT-15; MOLT-4; BT-549; SK-MEL-2; U-251; HL-60; UACC-62; UACC-257; T47D; CCRF-CEM; SF-268; MDA-MB-435.
Holding throughout (assay): inhibition of tumour cell growth, NCI panel, 48 h

In the case of `COC(=O)c1sc2c(c1C(=O)OC)/C(=N/C(C)(C)C)S/C2=N\C(C)(C)C`, the GI50 with M14 is 16.7 µM (inactive); in the assay on SF-539, 16.6 µM (inactive); with RXF 393 it was 4.02 µM (inactive); in the assay on NCI-H23 it was 18.8 µM (inactive); with NCI-H460, 18.5 µM (inactive); in the assay with Malme-3M, 20.7 µM (inactive). Besides, the GI50 with SK-OV-3 is 25.4 µM (inactive); in the assay on SW-620, 17.9 µM (inactive); with HCT-15, 17.2 µM; with MOLT-4 it was 15.1 µM (inactive); in the assay with BT-549, 19 µM (inactive); in the assay on SK-MEL-2, 17.1 µM (inactive). Also, the GI50 is 17.1 µM (inactive) with U-251; 13.6 µM (inactive) in the assay on HL-60; 17 µM (inactive) in the assay on UACC-62; 17.9 µM (inactive) in the assay with UACC-257; 12.2 µM (inactive) with T47D; 15.6 µM (inactive) in the assay on CCRF-CEM. Besides, the values for the GI50 in the assay on SF-268 and in the assay with MDA-MB-435 were 19.1 µM (inactive) and 18.4 µM (inactive), respectively.
For the compound `COc1ccc(/C=c2/[nH]c(=O)/c(=C\c3ccc(OCc4ccccc4)cn3)[nH]c2=O)cc1`, the GI50 in the assay on M14 is 62.8 µM (inactive); in the assay with SF-539, 32.4 µM (inactive); in the assay on RXF 393 it was 23.2 µM (inactive); with NCI-H23 it was > 100 µM (inactive); with NCI-H460, 63.8 µM (inactive); in the assay with Malme-3M, > 100 µM (inactive). The GI50 in the assay on SK-OV-3 is 55 µM (inactive); in the assay with SW-620, 62.4 µM (inactive); in the assay on HCT-15, 38.6 µM; with MOLT-4, 43.6 µM (inactive); with BT-549, 45.3 µM (inactive); with SK-MEL-2 it was 51.8 µM (inactive). For the same compound, the GI50 in the assay on U-251 was 40.6 µM (inactive); in the assay with HL-60 it was 6.93 µM (inactive); in the assay with UACC-62, > 100 µM (inactive); in the assay on UACC-257, > 100 µM (inactive); in the assay on T47D, > 100 µM (inactive); in the assay on CCRF-CEM, 13.9 µM (inactive). Further, the GI50 is 41.2 µM (inactive) in the assay on SF-268 and 19.9 µM (inactive) with MDA-MB-435.
As for `Cn1c(-c2cccs2)cc(-c2cccs2)c1-c1cccs1`, the GI50 is > 79.8 µM (inactive) in the assay on M14; > 100 µM (inactive) with SF-539; 54.2 µM (inactive) in the assay on RXF 393; 13.6 µM (inactive) in the assay on NCI-H23; 78.7 µM (inactive) in the assay with NCI-H460; > 100 µM (inactive) in the assay with Malme-3M. Besides, the GI50 with SK-OV-3 was > 100 µM (inactive); in the assay on SW-620, > 100 µM (inactive); in the assay with HCT-15 it was 21.8 µM; in the assay on MOLT-4 it was 38.5 µM (inactive); with BT-549, > 100 µM (inactive); in the assay on SK-MEL-2, 44 µM (inactive). Besides, the GI50 with U-251 was > 79.3 µM (inactive); in the assay with HL-60, 33 µM (inactive); in the assay on UACC-62, 11.9 µM (inactive); with UACC-257 it was 16.5 µM (inactive); with T47D, 2.78 µM (inactive); in the assay with CCRF-CEM it was 67 µM (inactive). The GI50 in the assay on SF-268 is > 81.8 µM (inactive); in the assay with MDA-MB-435 it was 53.2 µM (inactive).
As to `COC(=O)c1cc(Br)c(C(=O)C(Cl)(Cl)Cl)[nH]1`, the GI50 in the assay with M14, in the assay with SF-539, with RXF 393, with NCI-H23, with NCI-H460 and in the assay on Malme-3M was > 100 µM (inactive) in each case. The GI50 was > 100 µM (inactive) with SK-OV-3; > 100 µM (inactive) in the assay with SW-620; greater than 100 µM in the assay with HCT-15; > 100 µM (inactive) with MOLT-4; > 100 µM (inactive) with BT-549; > 100 µM (inactive) in the assay on SK-MEL-2. Also, the GI50 in the assay on U-251, with HL-60, with UACC-62, in the assay on UACC-257, with T47D and with CCRF-CEM was > 100 µM (inactive) throughout. The GI50 in the assay with SF-268 and in the assay with MDA-MB-435 was > 100 µM (inactive) throughout.
For `Fc1ccc(C(OCCN2CCN(CCCCl)CC2)c2ccc(F)cc2)cc1`, the GI50 in the assay with M14 is 18.9 µM (inactive); with SF-539 it was 18.7 µM (inactive); in the assay with RXF 393 it was 23.7 µM (inactive); with NCI-H23 it was 22.3 µM (inactive); in the assay on NCI-H460, 21.8 µM (inactive); with Malme-3M, 17 µM (inactive). Moreover, the GI50 in the assay with SK-OV-3 is 48.6 µM (inactive); in the assay with SW-620 it was 32.2 µM (inactive); with HCT-15, 17.3 µM; with MOLT-4 it was 19.9 µM (inactive); with BT-549, 18.6 µM (inactive); in the assay on SK-MEL-2 it was 24.2 µM (inactive). Moreover, the GI50 in the assay with U-251 is 41 µM (inactive); in the assay with HL-60, 0.391 µM (active); in the assay on UACC-62, 19.1 µM (inactive); in the assay on UACC-257 it was 21 µM (inactive); in the assay with T47D, 22.3 µM (inactive); in the assay with CCRF-CEM, 40.2 µM (inactive). Further, the GI50 was 24.5 µM (inactive) in the assay with SF-268 and 17.1 µM (inactive) in the assay with MDA-MB-435.
Regarding `Cc1cc(NS(=O)(=O)c2ccc(NC(=O)c3ccc4[nH]c5ccccc5c(=O)c4c3)cc2)no1`, the GI50 in the assay with M14 is > 100 µM (inactive); in the assay with SF-539, 68.1 µM (inactive); in the assay on RXF 393, 45.4 µM (inactive); in the assay with NCI-H23, > 100 µM (inactive); in the assay with NCI-H460, > 100 µM (inactive); in the assay with Malme-3M, 56.9 µM (inactive). The GI50 in the assay with SK-OV-3 was > 100 µM (inactive); with SW-620 it was > 100 µM (inactive); in the assay on HCT-15 it was greater than 100 µM; in the assay with MOLT-4, 49.8 µM (inactive); with BT-549 it was > 100 µM (inactive); with SK-MEL-2, 75.3 µM (inactive). In addition, the GI50 with U-251 was 47.4 µM (inactive); with HL-60, > 100 µM (inactive); in the assay on UACC-62, > 100 µM (inactive); in the assay with UACC-257 it was > 100 µM (inactive); with T47D it was 69.7 µM (inactive); in the assay on CCRF-CEM, 40.9 µM (inactive). The GI50 in the assay with SF-268 and in the assay on MDA-MB-435 was > 100 µM (inactive) each time.
With `CCCCC1Cc2cc(OC)ccc2-c2n1c1cc(OC)ccc1[n+]2C.CCCCC1Cc2cc(OC)ccc2-c2n1c1ccc(OC)cc1[n+]2C` (stereo not given), the GI50 is 3.76 µM (inactive) in the assay with M14; 3.34 µM (inactive) in the assay on SF-539; 14.2 µM (inactive) in the assay with RXF 393; 0.839 µM (active) in the assay on NCI-H23; 3.65 µM (inactive) with NCI-H460; 0.935 µM (active) with Malme-3M. The GI50 in the assay on SK-OV-3 is 10 µM (inactive); in the assay on SW-620, 2.82 µM (inactive); in the assay with HCT-15, 21.7 µM; in the assay with MOLT-4 it was 4.79 µM (inactive); with BT-549, 1.66 µM (inactive); with SK-MEL-2, 2.46 µM (inactive). The GI50 is 0.332 µM (active) in the assay with U-251; 0.261 µM (active) with HL-60; 0.528 µM (active) in the assay with UACC-62; 1.04 µM (active) with UACC-257; 0.656 µM (active) in the assay with T47D; 2.64 µM (inactive) in the assay with CCRF-CEM. For the same compound, the GI50 in the assay with SF-268 is 1.3 µM (inactive); with MDA-MB-435, 0.944 µM (active).
